Experimental data taken from patent US9447157B2, “Nitration shielding peptides and methods of use thereof” (Augusta University Research Institute, Inc., priority 2013, dated 2016).

Biological target: T1, PKG-1α (Homo sapiens, UniProt Q13976)
T1 construct: transfected with an expression plasmid containing a full length WT-PKG-1α cDNA; made in house; host or cells: HEK-293T (methods); the results paragraph b527 says PASMC
T1 sequence (Q13976 2-671): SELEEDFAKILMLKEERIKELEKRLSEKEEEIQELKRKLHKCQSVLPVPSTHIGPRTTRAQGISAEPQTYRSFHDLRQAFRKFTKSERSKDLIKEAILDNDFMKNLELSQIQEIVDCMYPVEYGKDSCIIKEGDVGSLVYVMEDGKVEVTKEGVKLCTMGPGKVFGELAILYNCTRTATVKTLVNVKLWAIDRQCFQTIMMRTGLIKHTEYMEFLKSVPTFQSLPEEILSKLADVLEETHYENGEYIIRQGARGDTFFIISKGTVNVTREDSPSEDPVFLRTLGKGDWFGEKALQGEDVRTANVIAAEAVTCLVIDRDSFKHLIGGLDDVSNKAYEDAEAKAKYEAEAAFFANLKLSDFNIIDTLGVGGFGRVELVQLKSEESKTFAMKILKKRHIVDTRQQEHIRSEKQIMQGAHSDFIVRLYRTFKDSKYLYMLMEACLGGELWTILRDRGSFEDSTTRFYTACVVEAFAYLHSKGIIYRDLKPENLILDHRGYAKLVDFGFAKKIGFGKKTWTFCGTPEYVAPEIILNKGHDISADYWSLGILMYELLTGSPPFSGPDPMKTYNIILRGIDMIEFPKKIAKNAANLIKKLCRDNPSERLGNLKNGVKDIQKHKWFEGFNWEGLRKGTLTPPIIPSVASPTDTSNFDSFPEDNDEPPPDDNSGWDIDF
Assay: PKG-1α nitration (IP, 3-NT blot) in transfected HEK-293T cells
Assay type: cell-based
Conditions: HEK-293T expressing WT-PKG-1α, SIN-1 500 μM 30 min
Procedure: Cells were homogenized in 3× weight/volume of IP buffer (25 mM Hepes, pH 7.5, 150 mM NaCl, 1% NP-40, 10 mM MgCl2, 1 mM EDTA, 2% glycerol, supplemented with protease inhibitor). The homogenates were then centrifuged at 20,000 g at 4° C. for 20 min, the supernatant was collected, and the protein concentration was quantified by the Bio-Rad DC Protein Assay. To 1000 μg of total protein, 4 μg of antibody against PKG-1α was added; the volume was brought to 1 ml with IP buffer, and the mixture was nutated at 4° C. overnight. To precipitate the bound protein, 30 μl of protein G plus agarose suspension (EMD biosciences, Inc., San Diego, Calif.) was added, and the samples were nutated for 2 h at 4° C. To collect the bead-bound antibody, the samples were then centrifuged at 2000 g for 5 min at 4° C., the supernatant was removed, and the beads were washed 3× with 500 μl of IP buffer. […]
To determine the role of tyrosine 247 and tyrosine 425 in mediating the nitration dependent inhibition of PKG-1α kinase activity, Y247F- and Y425F-PKG-1α mutants were generated and expressed in HEK-293T cells. […] Protein extracts were immunoprecipitated using an antibody raised against PKG-1α and the level of nitrated PKG-1α determined by probing the membranes with an antiserum raised against 3-NT. […]

Substance: 3-morpholinosydnonimine N-ethylcarbamide [SIN-1]
- Nitration of WT-PKG-1α: significantly increased
